Measured values as given in patent US12290497B2, “Agent containing 4-phenylbutyrate, for preventing or treating presbyopia” (SANTEN PHARMACEUTICAL CO., LTD., priority 2018, dated 2025).

Legend:
[1] = system: anterior segment of the eye; assay: Ocular Irritation Test (McDonald-Shadduck method, lens observation, histopathology); format: in vivo, Japanese White rabbits
Method: A vehicle (aqueous solution) comprising 0.1% (w/v) of ethyl pyruvate, 0.269% (w/v) of sodium dihydrogenphosphate monohydrate (NaH2PO4H2O), 0.433% (w/v) of disodium hydrogenphosphate (Na2HPO4), 0.2% (w/v) of hydroxypropyl methylcellulose, 0.5% (w/v) of NaCl was prepared.
0.3% (w/v), 1% (w/v), and 3% (w/v) sodium 4-phenylbutyrate ophthalmic liquids were prepared in the same manner as in the above pharmacological tests. These ophthalmic liquids and the vehicle were each instilled into the left eye of Japanese White rabbits at a dose of 50 μL/eye with pipette twice per day at a 6-hour interval for 2 weeks. One hour after the final instillation, ocular irritation of anterior segment of the eye was evaluated according to the McDonald-Shadduck method, and the lens was observed. The contralateral eye was […].
The ocular irritation of anterior segment of the eye was scored according to the following criteria:
+1: mild; +2: moderate; +3: severe.

[2] = system: lens elasticity; assay: Pharmacological Test 2: effect of sodium 4-phenylbutyrate eye drops on lens elasticity; format: in vivo, C57BL/6J mice; conditions: 3 times per day for 12 to 15 days; for Lens elasticity improvement: 2.5 μL/eye, 8-month-old mice, vs vehicle control
Method: The effect of sodium 4-phenylbutyrate on the lens elasticity was examined. A vehicle comprising 0.1% (w/v) of ethyl pyruvate, 0.269% (w/v) of sodium dihydrogenphosphate monohydrate (NaH2PO4H2O), 0.433% (w/v) of disodium hydrogenphosphate (Na2HPO4), 0.2% (w/v) of hydroxypropyl methylcellulose, 0.5% (w/v) of NaCl was prepared. Sodium 4-phenylbutyrate was sonicated with the addition of the vehicle to prepare a 1.5% (w/v) solution. The resulting 1.5% (w/v) solution was diluted with the vehicle to prepare a 0.5% (w/v) solution. Further, the resulting 0.5% (w/v) solution was diluted with the vehicle to prepare a 0.15% (w/v) solution. The total amount of each sample to be used in one day was prepared before use. EV06 was sonicated with the addition of the vehicle to prepare a 1.5% (w/v) solution. The total amount of the sample to be used in one day was prepared before use. 1) Each test sample (2.5 μL/eye) was instilled into the right eye of 8-month-old C57BL/6J mice with a Pipetman 3 times per day (around 9:00, 13:00 and 17:00) for 12 to 15 days. 2) After the final instillation, the mice were euthanized by carbon dioxide inhalation, and then the eyeballs were extracted and rinsed with Hank's balanced salt solution (HBSS). 3) The sclera near the optic nerve was cut with a razor, the lens was removed through the incision, and the removed lens was immersed in HESS. 4) The lens was placed on a glass slide, and an all-in-one fluorescence microscope BZ-9000 (Keyence) was used to capture an image of the lens (Image a). 5) Next, one cover glass (Corning^(registered trade mark) 22×22 mm Square) was placed on the lens, and an image in which the thickness of the lens changed due to the weight was similarly captured (Image b). 6) A change in the lens diameter was calculated from Equation 1 wherein the lens diameter of Image a is subtracted from the lens diameter of Image b, as described below. Then, the lens elasticity improvement of each sample group compared with the vehicle control group was calculated from Equation 2 described below. The mean of the vehicle control group was based on 4 eyes, the mean of each sodium 4-phenylbutyrate sample group and the mean of the EV06 sample group were based on 9-10 eyes. Change in lens diameter=Lens diameter in Image b of each test sample−Lens diameter in Image a of each test sample (Equation 1) Lens elasticity improvement of each sample group=Mean change in lens diameter of each Test sample group−Mean change in lens diameter of Vehicle control group (Equation 2) (Results)

[3] = system: lens elasticity; assay: Pharmacological Test 3: effect of once-daily instillation of sodium 4-phenylbutyrate for 2 weeks on lens elasticity; format: in vivo, C57BL/6J mice; conditions: for Lens elasticity improvement: 2.5 μL/eye, vs vehicle control
Method: The effect of once-daily instillation of sodium 4-phenylbutyrate for 2 weeks on the lens elasticity was examined. A vehicle comprising 0.1% (w/v) of ethyl pyruvate, 0.269% (w/v) of sodium dihydrogenphosphate monohydrate (NaH2PO4H2O), 0.433% (w/v) of disodium hydrogenphosphate (Na2HPO4), 0.2% (w/v) of hydroxypropyl methylcellulose, and 0.5% (w/v) of NaCl was prepared. Sodium 4-phenylbutyrate was dissolved with the addition of the vehicle to prepare a 3.0% (w/v) solution. The resulting 3.0% (w/v) solution was diluted with the vehicle to prepare a 1.0% (w/v) solution. Further, the resulting 1.0% (w/v) solution was diluted with the vehicle to prepare a 0.3% (w/v) solution. The total amount of each sample to be used in one day was prepared before use. EV06 was sonicated with the addition of the vehicle to prepare a 1.5% (w/v) solution. The total amount of the sample to be used in one day was prepared before use. 1) Each test sample (2.5 μL/eye) was instilled into the right eye of 8-month-old C57BL/6J mice with a Pipetman once per day (QD; around 9:00) or 3 times per day (TID; around 9:00, 13:00 and 17:00) for 14 days. 2) After the final instillation, the mice were euthanized by carbon dioxide inhalation, and then the eyeballs were extracted and rinsed with Hank's balanced salt solution (HBSS). 3) The sclera near the optic nerve was cut with a razor, the lens was removed through the incision, and the removed lens was immersed in HBSS. 4) The lens was placed on a glass slide, and an all-in-one fluorescence microscope BZ-9000 (Keyence) was used to capture an image of the lens (Image a). 5) Next, one cover glass (Corning^(registered trade mark) 22×22 mm Square) was placed on the lens, and an image in which the thickness of the lens changed due to the weight was similarly captured (Image b). 6) A change in the lens diameter was calculated from Equation 1 wherein the lens diameter of Image a is subtracted from the lens diameter of Image b, as described below. Then, the lens elasticity improvement of each sample group compared with the vehicle control group was calculated from Equation 2 described below. The mean of the vehicle control group was based on 5 eyes. The mean of each sodium 4-phenylbutyrate sample group and the mean of each EV06 sample group were based on 9 to 10 eyes. Change in lens diameter=Lens diameter in Image b of each test sample−Lens diameter in Image a of each test sample (Equation 1) Lens elasticity improvement of each sample group=Mean change in lens diameter of each Test sample group−Mean change in lens diameter of Vehicle control group (Equation 2) (Results)

[4] = system: lens elasticity; assay: Pharmacological Test 1: effect of EV06 eye drops on lens elasticity (lens diameter change under cover glass); format: in vivo, C57BL/6J mice; conditions: 3 times per day for 15 to 17 days; for Lens elasticity improvement: 2.5 μL/eye, 8-month-old mice, vs vehicle control
Method: The effect of lipoic acid choline ester (EV06) on the lens elasticity was examined. The tests were conducted with reference to the methods described in InvestOphthalmol Vis Sci, 57, 2851-2863, 2016. EV06 is a compound represented by the following formula (2): A vehicle comprising 0.1% (w/v) of ethyl pyruvate, 0.269% (w/v) of sodium dihydrogenphosphate monohydrate (NaH2PO4H2O), 0.433% (w/v) of disodium hydrogenphosphate (Na2HPO4), 0.2% (w/v) of hydroxypropyl methylcellulose, and 0.5% (w/v) of NaCl was prepared. EV06 was sonicated with the addition of the vehicle to prepare a 5% (w/v) suspension. The resulting 5% (w/v) suspension was diluted with the vehicle to prepare a 1.5% (w/v) solution. Further, the resulting 1.5% (w/v) solution was diluted with the vehicle to prepare a 0.5% (w/v) solution. The total amount of each sample to be used in one day was prepared before use. 1) Each test sample (2.5 μL/eye) was instilled into the right eye of 8-month-old C57BL/6J mice with a Pipetman 3 times per day (around 9:00, 13:00 and 17:00) for 15 to 17 days. 2) After the final instillation, the mice were euthanized by carbon dioxide inhalation, and then the eyeballs were extracted and rinsed with Hank's balanced salt solution (HBSS). 3) The sclera near the optic nerve was cut with a razor, the lens was removed through the incision, and the removed lens was immersed in HESS. 4) The lens was placed on a glass slide, and an all-in-one fluorescence microscope BZ-9000 (Keyence) was used to capture an image of the lens (Image a). 5) Next, one cover glass (Corning^(registered trade mark) 22×22 mm Square) was placed on the lens, and an image in which the thickness of the lens changed due to the weight was similarly captured (Image b). 6) A change in the lens diameter was calculated from Equation 1 wherein the lens diameter of Image a is subtracted from the lens diameter of Image b, as described below. Then, the lens elasticity improvement of each sample group compared with the vehicle control group was calculated from Equation 2 described below. The mean of the vehicle control group was based on 6 eyes and the mean of each EV06 sample group was based on 12 eyes. Change in lens diameter=Lens diameter in Image b of each test sample−Lens diameter in Image a of each test sample (Equation 1) Lens elasticity improvement of each sample group=Mean change in lens diameter of each EV06 sample group−Mean change in lens diameter of Vehicle control group (Equation 2) (Results)

Compound | Overall safety of ophthalmic liquids (in words) ([1]; ophthalmic liquids, rabbit 2-week instillation) | Histopathological examination of the eyes (in words) ([1]; rabbit, in vivo) | Observation of ocular irritation of anterior segment of the eye and lens observation (in words) ([1]; rabbit, in vivo) | Lens elasticity improvement ([2]; 0.15% (w/v) sample) [μm] | Lens elasticity improvement ([2]; 0.5% (w/v) sample) [μm] | Lens elasticity improvement ([2]; 1.5% (w/v) sample) [μm] | Lens elasticity improving effect compared with EV06 at the same concentration ([2]; 1.5% sample group) | Lens elasticity improving effect (in words) ([2]; all of the 0.15%, 0.5%, and 1.5% groups) | Lens elasticity improvement ([3]; 0.3% (w/v) sample, once per day (QD) for 14 days) [μm] | Lens elasticity improvement (in words) ([3]; 0.3%, 1% and 3% samples instilled once-daily for 14 days) | Lens elasticity improvement ([3]; 1.0% (w/v) sample, once per day (QD) for 14 days) [μm] | Lens elasticity improvement ([3]; 3.0% (w/v) sample, once per day (QD) for 14 days) [μm] | Lens elasticity improvement compared with 1.5% EV06 ([3]; concentrations 1.0% and 3.0%, once-daily for 14 days) | Lens elasticity improvement ([4]; 0.5% (w/v) sample) [μm] | Lens elasticity improvement ([4]; 1.5% (w/v) sample) [μm] | Lens elasticity improvement ([4]; 5% (w/v) sample) [μm] | Lens elasticity improving effect (in words) ([4]; all of the 0.5%, 1.5%, and 5% groups) | Lens elasticity improvement ([3]; 1.5% (w/v) sample, 3 times per day (TID) for 14 days) [μm] | Lens elasticity improvement ([3]; 1.5% (w/v) sample, once per day (QD) for 14 days) [μm]
O=C([O-])CCCc1ccccc1.[Na+] [sodium 4-phenylbutyrate] | highly safe | showed no abnormal findings | no abnormal findings were observed | 38.1 | 47.5 | 51.4 | stronger than that of EV06 | potent lens elasticity improving effect | 25.6 | potent lens elasticity improvement | 30.6 | 48.1 | more potent lens elasticity improvement compared with 1.5% EV06 | – | – | – | – | – | –
C[N+](C)(C)CCOC(=O)CCCC[C@@H]1CCSS1.[Cl-] [EV06, lipoic acid choline ester] | – | – | – | – | – | 49.0 | – | – | – | – | – | – | – | 28.8 | 47.3 | 48.7 | increased lens diameter compared with the vehicle control group | 47.9 | 21.6
